The values below come from PubChem BioAssay (NCI).

Common to all, as to assay: NCI anticancer screen, dose series, 48 h
Assay [1] has as its system RXF 393 renal.
In assay [2] the test system is NCI/ADR-RES ovarian.
In assay [3] the test system is SR leukemia.
Assay [4] deals with NCI-H23 lung.
In assay [5] the test system is UACC-62 melanoma.
The subject of assay [6] is HS 578T breast.
For assay [7], the system named is CAKI-1 renal.
In assay [8] the test system is NCI-H226 lung.
Assay [9] relates to EKVX NSCLC.
In assay [10] the test system is KM12 colon.

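Results reflect a 48-hour exposure of cells in 96-well plates to compound at five concentrations. Abbreviation: GI50, concentration required for 50% inhibition of growth. TGI is the concentration that stops growth completely.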

For the molecule `CNc1cc2oc(=O)cc(C)c2cc1C`, the TGI in assay [1], in assay [2], in assay [3], in assay [4], in assay [5] and in assay [6] was more than 100 µM in each case. Besides, the TGI in assay [7], in assay [8] and in [9] was more than 100 µM throughout.
For the molecule `CN(Cc1cnc2nc(N)nc(N)c2n1)c1ccc(C(=O)N[C@@H](CCS(=O)(=O)O)C(=O)O)cc1`, the TGI was 1.44 µM in assay [1]; more than 100 µM in assay [10]; more than 100 µM in assay [2]; more than 100 µM in assay [3]; more than 100 µM in assay [4]; more than 100 µM in assay [5]. Further, the TGI in assay [6], in assay [7], in assay [8] and in [9] was more than 100 µM in each case.
In the case of `COc1ccc(Cl)cc1NC(=O)c1ccc(NC2=C(Cl)C(=O)N(Cc3ccccc3)C2=O)cc1`, the GI50 is 21.3 µM in assay [1]; 64.4 µM in assay [10]; 55.1 µM in [2]; 2.76 µM in assay [3]; 55.8 µM in [4]; 33.7 µM in assay [5]. In addition, the GI50 in [6] is 37.1 µM; in assay [7] it was more than 100 µM; in assay [8], more than 100 µM; in assay [9], more than 100 µM. Also, the TGI in [1] is 79.3 µM; in assay [10], more than 100 µM; in [2] it was more than 100 µM; in assay [3], 9.87 µM; in [4], more than 100 µM; in assay [5], more than 100 µM. Also, the TGI in assay [6], in [7], in assay [8] and in assay [9] was more than 100 µM each time.
As to `O=C(Nc1nc(-c2c[nH]c3ccccc23)cs1)c1n[nH]c(=O)c2ccccc12`, the GI50 in assay [1] was 0.446 µM; in [10] it was 1.76 µM; in assay [2], 6.74 µM; in assay [3], 1.61 µM; in [4], 24.2 µM; in assay [5], 1.45 µM. Besides, the GI50 in [6] was 5.52 µM; in [7], 2.44 µM; in assay [8], 12.3 µM; in assay [9], 51.3 µM. Moreover, the TGI in assay [1] is 20.7 µM; in assay [10] it was more than 100 µM; in [2], 78.6 µM; in [4] it was more than 100 µM; in assay [5] it was more than 100 µM; in assay [6], 55 µM. Also, the TGI in assay [7] was more than 62.3 µM; in assay [8], 89.8 µM; in assay [9], more than 100 µM.
For the molecule `COc1ccc(-c2c(C#N)c(N3CCOCC3)nc3[nH]c(=S)[nH]c(=S)c23)cc1OC`, the GI50 in assay [1] is 62.6 µM; in assay [10], 29.1 µM; in assay [2] it was 56.6 µM; in [3] it was 11.5 µM; in [4] it was 20.9 µM; in assay [5], 20.1 µM. Also, the GI50 in assay [6] is 47.3 µM; in [7], 30.7 µM; in assay [8], 18.8 µM; in [9] it was more than 100 µM. The TGI is more than 100 µM in assay [1]; more than 100 µM in assay [10]; more than 100 µM in [2]; more than 100 µM in assay [3]; more than 100 µM in assay [4]; 76.1 µM in assay [5]. Further, the TGI in assay [6] was more than 100 µM; in assay [7], 87.3 µM; in assay [8] it was 89.6 µM; in assay [9], more than 100 µM.
For the molecule `COc1cc2c3c(n(C)c(=O)c2cc1OC)-c1cc2c(cc1C3=O)OCO2`, the TGI is more than 62.4 µM in [1]; more than 100 µM in [10]; more than 100 µM in assay [2]; 11.8 µM in assay [3]; 37 µM in assay [4]; 32.4 µM in [5]. Besides, the TGI in [6] was more than 100 µM; in [7] it was more than 53.1 µM; in assay [8] it was more than 100 µM; in [9], more than 100 µM.
As to `COc1cc2c(cc1OCCCN1CCN(CCCOc3cc4c(cc3OC)C(=O)N3CC(F)(F)C[C@H]3C=N4)CC1)N=C[C@@H]1CC(F)(F)CN1C2=O`, the GI50 was 2.14 µM in assay [1]; 4.1 µM in [10]; 25.2 µM in assay [2]; 0.882 µM in [3]; 4.55 µM in assay [4]; 3.05 µM in assay [5]. Also, the GI50 was 2.32 µM in assay [6], 3.31 µM in assay [7], 14 µM in [8] and 29.1 µM in assay [9]. In addition, the TGI in assay [1] was determined as 4.52 µM; in assay [10], 17.5 µM; in assay [2], 72.9 µM; in assay [3], 11.4 µM; in [4], 16.8 µM; in [5] it was 13.2 µM. Further, the TGI was 9.55 µM in [6], 13.5 µM in [7], 39.8 µM in assay [8] and more than 100 µM in assay [9].
With `O=C(Nc1ncc(Cc2cccc(C(F)(F)F)c2)s1)c1ccc2c(c1)OCCO2`, the GI50 in [1] was 0.232 µM; in [10], 0.196 µM; in [2], 0.251 µM; in assay [3], 0.21 µM; in [4], 0.474 µM; in [5], 0.372 µM. For the same molecule, the GI50 was 0.306 µM in assay [6], 0.141 µM in assay [7], 0.827 µM in assay [8] and 0.602 µM in assay [9]. Moreover, the TGI in assay [1] was 0.783 µM; in [10] it was more than 100 µM; in assay [2], 6.96 µM; in assay [3], more than 100 µM; in assay [4] it was more than 57.6 µM; in assay [5], more than 100 µM. Besides, the results for the TGI in [6], in assay [7] and in [9] were more than 66.4 µM, more than 45.9 µM and more than 100 µM, respectively.
As for `COc1ccc(/C=C\c2cc(OC)c(OC)c(OC)c2)cc1OCC(=O)O`, the TGI in assay [1] is 39.2 µM; in [10], more than 74 µM; in assay [2], 5.39 µM; in [3], more than 100 µM; in assay [4] it was 12.5 µM; in assay [5], more than 100 µM. The TGI in [6] was 9.25 µM; in [7], more than 100 µM; in assay [8] it was 48.2 µM; in [9], more than 100 µM.
As for `O=c1[nH]c(-c2cccc(F)c2)cc2cc(F)ccc12`, the GI50 is 0.358 µM in assay [1]; 0.307 µM in assay [10]; 0.268 µM in [2]; 0.0712 µM in assay [3]; 1.61 µM in assay [4]; 0.571 µM in [5]. Also, the GI50 in [6] was 0.381 µM; in assay [7] it was 0.264 µM; in [9] it was 2.34 µM. The TGI is more than 100 µM in assay [10]; more than 100 µM in [2]; more than 100 µM in [3]; more than 100 µM in assay [4]; more than 100 µM in [5]; more than 72.8 µM in assay [6]. Besides, the TGI in assay [7], in [8] and in assay [9] was more than 100 µM each time.
`CCN(Cc1c(F)cccc1OC)c1ccc(CO)c(Cl)c1`: the GI50 in assay [1] was 10.9 µM; in [10] it was 15.9 µM; in [2], 13.3 µM; in assay [3], 18.3 µM; in [4], 12.5 µM; in [5], 0.0961 µM. Besides, the GI50 in assay [6] is 19.1 µM; in [7] it was 3.05 µM; in assay [8] it was 0.0328 µM. Besides, the TGI in [1] worked out at 25.3 µM; in assay [10], 49.8 µM; in assay [2] it was 43.1 µM; in assay [3] it was 55.5 µM; in [4], 39.2 µM; in [5], 0.953 µM. Further, the TGI in assay [6] is 53.4 µM; in assay [7] it was 35.5 µM; in [8] it was 0.169 µM.
Take `O=c1[nH]c(O)c(C=Nc2ccc(-c3nc4ccccc4o3)cc2)c(=O)[nH]1`: the GI50 in [1] was 89 µM; in [10], 31.3 µM; in assay [2], 3.56 µM; in [3], 44.5 µM; in assay [5], 35.6 µM; in assay [6], more than 100 µM. The GI50 was 33.1 µM in assay [7], 90.3 µM in assay [8] and more than 100 µM in assay [9]. Further, the TGI in [1] was more than 100 µM; in assay [10], more than 100 µM; in assay [2] it was 9.59 µM; in assay [3], more than 100 µM; in assay [5], more than 100 µM; in assay [6], more than 100 µM. In addition, the TGI in assay [7], in assay [8] and in assay [9] was more than 100 µM each time.
For `COc1ccc(-c2cc(=O)oc3c4c(ccc23)OCN(Cc2ccc(F)cc2)C4)cc1`, the GI50 is 13 µM in assay [1]; 17.6 µM in [10]; 17.2 µM in [2]; 13 µM in assay [3]; 20.5 µM in [4]; 14.7 µM in assay [5]. In addition, the results for the GI50 in [6], in [7] and in [8] were 15.8 µM, 14.7 µM and 18.2 µM, respectively. Further, the TGI in assay [1] is 29.2 µM; in [10], 35.2 µM; in assay [2], 42.9 µM; in assay [3], 39.9 µM; in [4], 49.4 µM; in [5], 29.3 µM. The TGI in assay [6] was 47.9 µM; in [7], 44.3 µM; in assay [8] it was 54.5 µM.
